In this test the target is HPK1 (MAP4K1) (Homo sapiens, UniProt Q92918). The test is described as follows: FRET Assay for HPK1 (MAP4K1): one step binding assay, displacement of labeled tracer. Conditions: for inhibition at 1 µM: 1 μM compound; for inhibition at 1 µM / inhibition at 10 µM: FRET ratio 665/620, percent of control; for inhibition at 10 µM: 10 μM compound; for IC50: dose response curve, nonlinear regression. Summed up:
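Percent inhibition at 1.0 and 10.0 μM and IC50 by nonlinear regression were derived from loss of FRET signal versus control. The signal runs from Eu-anti-GST antibody (4 nM) bound to 10 nM HPK1 kinase to Alexa Fluor 647 Kinase Tracer 222 (20 nM), added after a 15-min on-ice compound pre-incubation. Binding then proceeded 1 h at room temperature in HEPES pH 7.5 buffer with 10 mM MgCl2, 1 mM EGTA, 0.01% Brij-35 and 3% DMSO.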

Some results are limits rather than exact numbers.

Chain of HPK1 (MAP4K1) (Q92918 whole entry): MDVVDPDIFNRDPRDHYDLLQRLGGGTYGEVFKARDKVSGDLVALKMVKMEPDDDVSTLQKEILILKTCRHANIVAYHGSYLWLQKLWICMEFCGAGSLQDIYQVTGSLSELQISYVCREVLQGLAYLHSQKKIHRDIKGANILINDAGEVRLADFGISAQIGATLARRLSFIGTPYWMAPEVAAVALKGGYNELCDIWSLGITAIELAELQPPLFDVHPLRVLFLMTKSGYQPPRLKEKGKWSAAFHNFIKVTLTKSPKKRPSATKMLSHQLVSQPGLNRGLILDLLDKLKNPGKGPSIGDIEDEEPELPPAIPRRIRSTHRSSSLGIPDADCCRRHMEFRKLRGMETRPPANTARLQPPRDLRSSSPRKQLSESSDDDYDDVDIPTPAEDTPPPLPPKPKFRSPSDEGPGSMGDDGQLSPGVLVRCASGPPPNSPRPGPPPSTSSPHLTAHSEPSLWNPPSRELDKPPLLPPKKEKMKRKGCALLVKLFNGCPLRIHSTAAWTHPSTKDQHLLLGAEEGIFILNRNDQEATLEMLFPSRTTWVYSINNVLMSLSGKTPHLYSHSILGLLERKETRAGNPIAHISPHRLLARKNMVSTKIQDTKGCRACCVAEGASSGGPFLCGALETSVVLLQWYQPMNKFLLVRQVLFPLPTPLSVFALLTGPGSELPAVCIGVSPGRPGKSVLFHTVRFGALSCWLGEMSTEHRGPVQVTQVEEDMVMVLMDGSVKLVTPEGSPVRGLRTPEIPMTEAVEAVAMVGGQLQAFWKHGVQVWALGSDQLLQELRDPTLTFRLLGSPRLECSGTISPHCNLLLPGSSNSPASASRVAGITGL

As usually defined, the inhibition is the share of the control response that was lost under treatment. By IC50 is commonly meant the concentration needed to halve the response being measured. Lower therefore signals greater potency in that assay. As to `CNC(=O)C(F)(F)n1ccc(N/C(C)=C2\C(=O)Nc3cnc(-c4cnccc4C)cc32)n1` [Example 155, (Z)-2,2-Difluoro-N-methyl-2-(3-((1-(5-(4-methylpyridin-3-yl)-2-oxo-1H-pyrrolo[2,3-c]pyridin-3(2H)-ylidene)ethyl)amino)-1H-pyrazol-1-yl)acetamide], the inhibition at 1 µM was determined as 65.1%, the inhibition at 10 µM stood at 68.8% and the IC50 is under 50 nM.

`C/C(Nc1cnn(C[C@H](C)O)c1)=C1/C(=O)Nc2cnc(-c3cnccc3C)cc21` [Example 156, (S,Z)-3-(1-((1-(2-Hydroxypropyl)-1H-pyrazol-4-yl)amino)ethylidene)-5-(4-methylpyridin-3-yl)-1H-pyrrolo[2,3-c]pyridin-2(3H)-one]: the inhibition at 1 µM is 60.6%, the inhibition at 10 µM turned out to be 80% and the IC50 was 50 to 100 nM.

`C/C(Nc1ccn(C)n1)=C1/C(=O)Nc2cccc(-c3cnccc3C)c21` [Example 157, (Z)-3-(1-((1-Methyl-1H-pyrazol-3-yl)amino)ethylidene)-4-(4-methylpyridin-3-yl)indolin-2-one]: the inhibition at 1 µM was determined as 54.5% and the inhibition at 10 µM stood at 66.5%.

As for `C/C(Nc1cnn(C)c1)=C1/C(=O)Nc2cnc(-c3cccnc3C)cc21` [Example 158, (Z)-3-(1-((1-Methyl-1H-pyrazol-4-yl)amino)ethylidene)-5-(2-methylpyridin-3-yl)-1H-pyrrolo[2,3-c]pyridin-2(3H)-one], the inhibition at 1 µM amounted to 74.7%, the inhibition at 10 µM was 91.1% and the IC50 was in the range of 100 to 500 nM.

For the compound `C/C(Nc1cnn(C)c1)=C1/C(=O)Nc2cccc(-c3cnccc3C)c21` [Example 159, (Z)-3-(1-((1-Methyl-1H-pyrazol-4-yl)amino)ethylidene)-4-(4-methylpyridin-3-yl)indolin-2-one], the inhibition at 1 µM was 62.8%, the inhibition at 10 µM turned out to be 87.4% and the IC50 is over 500 nM.

Consider `C/C(Nc1cnn([C@H](C)C#N)c1)=C1/C(=O)Nc2cnc(-c3cnccc3C)cc21` [Example 160, (R,Z)-2-(4-((1-(5-(4-Methylpyridin-3-yl)-2-oxo-1H-pyrrolo[2,3-c]pyridin-3(2H)-ylidene)ethyl)amino)-1H-pyrazol-1-yl)propanenitrile], for which the inhibition at 1 µM was determined as 85%, the inhibition at 10 µM came to 78.4% and the IC50 was under 50 nM.

With `C/C(Nc1cnn(C)c1)=C1/C(=O)Nc2ccc(-c3cnccc3C)cc21` [Example 161, (Z)-3-(1-((1-Methyl-1H-pyrazol-4-yl)amino)ethylidene)-5-(4-methylpyridin-3-yl)indolin-2-one], the inhibition at 1 µM worked out at 81.2%, the inhibition at 10 µM stood at 81% and the IC50 is under 50 nM.

Regarding `C/C(Nc1ccn(C)n1)=C1/C(=O)Nc2cnc(-c3cccnc3C)cc21` [Example 162, (Z)-3-(1-((1-Methyl-1H-pyrazol-3-yl)amino)ethylidene)-5-(2-methylpyridin-3-yl)-1H-pyrrolo[2,3-c]pyridin-2(3H)-one], the inhibition at 1 µM came to 76.2%, the inhibition at 10 µM was determined as 92.9% and the IC50 lay in the range of 50 to 100 nM.

As to `C/C(Nc1ncn(C)n1)=C1/C(=O)Nc2cnc(-c3cnccc3C)cc21` [Example 163, (Z)-3-(1-((1-Methyl-1H-1,2,4-triazol-3-yl)amino)ethylidene)-5-(4-methylpyridin-3-yl)-1H-pyrrolo[2,3-c]pyridin-2(3H)-one], the inhibition at 1 µM is 77.3%, the inhibition at 10 µM turned out to be 81.5% and the IC50 was under 50 nM.

As for `C/C(Nc1cnn(C)c1)=C1/C(=O)Nc2cnc(-c3c(C)cccc3F)cc21` [Example 164, (Z)-5-(2-Fluoro-6-methylphenyl)-3-(1-((1-methyl-1H-pyrazol-4-yl)amino)ethylidene)-1H-pyrrolo[2,3-c]pyridin-2(3H)-one], the inhibition at 1 µM amounted to 60.9%, the inhibition at 10 µM turned out to be 75.2% and the IC50 lay in the range of 50 to 100 nM.

For the compound `C/C(Nc1cnn(CC[C@@H](C)O)c1)=C1/C(=O)Nc2cnc(-c3cnccc3C)cc21` [Example 165, (R,Z)-3-(1-((1-(3-Hydroxybutyl)-1H-pyrazol-4-yl)amino)ethylidene)-5-(4-methylpyridin-3-yl)-1H-pyrrolo[2,3-c]pyridin-2(3H)-one], the inhibition at 1 µM was determined as 79.3%, the inhibition at 10 µM was found to be 71.8% and the IC50 was under 50 nM.

As for `C/C(Nc1cnn(CCC(C)(C)O)c1)=C1/C(=O)Nc2cnc(-c3cnccc3C)cc21` [Example 166, (Z)-3-(1-((1-(3-Hydroxy-3-methylbutyl)-1H-pyrazol-4-yl)amino)ethylidene)-5-(4-methylpyridin-3-yl)-1H-pyrrolo[2,3-c]pyridin-2(3H)-one], the inhibition at 1 µM was 62.9%, the inhibition at 10 µM came to 75.7% and the IC50 is under 50 nM.

Take `C/C(Nc1cnn([C@@H](C)C#N)c1)=C1/C(=O)Nc2cnc(-c3cnccc3C)cc21` [Example 167, (S,Z)-2-(4-((1-(5-(4-Methylpyridin-3-yl)-2-oxo-1H-pyrrolo[2,3-c]pyridin-3(2H)-ylidene)ethyl)amino)-1H-pyrazol-1-yl)propanenitrile]: the inhibition at 1 µM was 69.2%, the inhibition at 10 µM stood at 67.5% and the IC50 is under 50 nM.

Consider `C/C(Nc1ccn(CC2(O)CC2)n1)=C1/C(=O)Nc2cnc(-c3cnccc3C)cc21` [Example 168, (Z)-3-(1-((1-((1-Hydroxycyclopropyl)methyl)-1H-pyrazol-3-yl)amino)ethylidene)-5-(4-methylpyridin-3-yl)-1H-pyrrolo[2,3-c]pyridin-2(3H)-one], for which the inhibition at 1 µM amounted to 67.6%, the inhibition at 10 µM worked out at 76.7% and the IC50 is under 50 nM.

Take `C/C(Nc1ccn(CC[C@@H](C)O)n1)=C1/C(=O)Nc2cnc(-c3cnccc3C)cc21` [Example 169, (R,Z)-3-(1-((1-(3-Hydroxybutyl)-1H-pyrazol-3-yl)amino)ethylidene)-5-(4-methylpyridin-3-yl)-1H-pyrrolo[2,3-c]pyridin-2(3H)-one]: the inhibition at 1 µM is 71.4%, the inhibition at 10 µM turned out to be 84.3% and the IC50 is under 50 nM.

In the case of `C/C(Nc1cc(C)n(CC(F)F)n1)=C1/C(=O)Nc2cnc(-c3cnccc3C)cc21` [Example 170, (Z)-3-(1-((1-(2,2-Difluoroethyl)-5-methyl-1H-pyrazol-3-yl)amino)ethylidene)-5-(4-methylpyridin-3-yl)-1H-pyrrolo[2,3-c]pyridin-2(3H)-one], the inhibition at 1 µM is 70.1%, the inhibition at 10 µM amounted to 70.3% and the IC50 is under 50 nM.

Consider `COc1cccc(F)c1-c1cc2c(cn1)NC(=O)/C2=C(/C)Nc1cnn([C@H](C)C#N)c1` [Example 171, (R,Z)-2-(4-((1-(5-(2-Fluoro-6-methoxyphenyl)-2-oxo-1H-pyrrolo[2,3-c]pyridin-3(2H)-ylidene)ethyl)amino)-1H-pyrazol-1-yl)propanenitrile], for which the inhibition at 1 µM was determined as 63.4%, the inhibition at 10 µM worked out at 77% and the IC50 fell in the range of 50 to 100 nM.

For the compound `COc1cccc(F)c1-c1cc2c(cn1)NC(=O)/C2=C(/C)Nc1cnn([C@@H](C)C#N)c1` [Example 172, (S,Z)-2-(4-((1-(5-(2-Fluoro-6-methoxyphenyl)-2-oxo-1H-pyrrolo[2,3-c]pyridin-3(2H)-ylidene)ethyl)amino)-1H-pyrazol-1-yl)propanenitrile], the inhibition at 1 µM amounted to 79.2%, the inhibition at 10 µM came out at 80.5% and the IC50 was under 50 nM.

For `COc1cccc(F)c1-c1cc2c(cn1)NC(=O)/C2=C(/C)Nc1cnn(C[C@H](C)O)c1` [Example 173, (S,Z)-5-(2-Fluoro-6-methoxyphenyl)-3-(1-((1-(2-hydroxypropyl)-1H-pyrazol-4-yl)amino)ethylidene)-1H-pyrrolo[2,3-c]pyridin-2(3H)-one], the inhibition at 1 µM worked out at 66.8%, the inhibition at 10 µM amounted to 77.4% and the IC50 is under 50 nM.

Consider `C/C(Nc1cnn(CC2(O)CC2)c1)=C1/C(=O)Nc2cnc(-c3cnccc3C)cc21` [Example 174, (Z)-3-(1-((1-((1-Hydroxycyclopropyl)methyl)-1H-pyrazol-4-yl)amino)ethylidene)-5-(4-methylpyridin-3-yl)-1H-pyrrolo[2,3-c]pyridin-2(3H)-one], for which the inhibition at 1 µM came out at 55.1%, the inhibition at 10 µM came to 64.8% and the IC50 is under 50 nM.

Regarding `C/C(Nc1nn(C)c2ccccc12)=C1/C(=O)Nc2cnc(-c3cnccc3C)cc21` [Example 175, (Z)-3-(1-((1-Methyl-1H-indazol-3-yl)amino)ethylidene)-5-(4-methylpyridin-3-yl)-1H-pyrrolo[2,3-c]pyridin-2(3H)-one], the inhibition at 1 µM was determined as 72.6% and the IC50 was under 50 nM.

Consider `C/C(Nc1cnn(CC[C@H](C)O)c1)=C1/C(=O)Nc2cnc(-c3cnccc3C)cc21` [Example 176, (S,Z)-3-(1-((1-(3-Hydroxybutyl)-1H-pyrazol-4-yl)amino)ethylidene)-5-(4-methylpyridin-3-yl)-1H-pyrrolo[2,3-c]pyridin-2(3H)-one], for which the inhibition at 1 µM worked out at 75.4%, the inhibition at 10 µM was found to be 62.3% and the IC50 was under 50 nM.

Take `C/C(Nc1ccc(OC2CCN(C(=O)C3CC3)CC2)nc1)=C1/C(=O)Nc2cnc(-c3cnccc3C)cc21` [Example 177, (Z)-3-(1-((6-((1-(Cyclopropanecarbonyl)piperidin-4-yl)oxy)pyridin-3-yl)amino)ethylidene)-5-(4-methylpyridin-3-yl)-1H-pyrrolo[2,3-c]pyridin-2(3H)-one]: the inhibition at 1 µM was determined as 69.4%, the inhibition at 10 µM was 66.6% and the IC50 was under 50 nM.

Values taken from patent publication US20230009626A1 (ICHNOS SCIENCES S.A., priority 2018, published 2023).
